This note sets out measurements from patent publication US12201745B2, “Vascular extracellular matrix hydrogel” (University of Pittsburgh—Of the Commonwealth System of …, priority 2016, dated 2025).

Assay [1] has as its system Primary human adventitia-derived endothelial cells. The assay can be described thus: Endothelial cell branching assay (tube-like structures on GFR-Matrigel). The assay is classed as cell-based. Conditions: 100 nM. As to the method: FIGS. 13A-13C. Effect of ECM bioscaffolds on network formation of tube-like structures in vitro. FIG. 13A—Human adventitia-derived endothelial cells were cultured on growth factor reduced-Matrigel substrates: (A) DMSO, 0.05% (v/v), (B) Digestion buffer (1% (w/v) Pepsin in 0.1 N HCl), (C) pAdv ECM, and (D) pSIS ECM. FGF2 inhibitor PD173074 (100 nM) was added to the culture medium of above treatments shown in parallel wells (E-H). A-H: One representative 10× field is shown, selected from one of three replicates of two independent experiments. All scale bars=50 μm for (A-H). Quantification of the number (FIG. 13B) and total length (FIG. 13C) of tube-like structures from 5×5 stitched fields captured at 10× for non-ECM-supplemented (open bars), pAdv (solid bars) and pSIS (gray bars) ECM-supplemented substrates in the absence and presence of PD173074. Bars represent mean of three assay replicates ±standard deviation. Images and graphs represent data from one of two independent experiments. *Significant from pepsin HCl, p<0.02; #Significant from pAdv ECM-treated cells in the absence of PD173074, p<0.03.
Endothelial Cell Branching Assay. […] Total number and length of tube-like structures were quantified using NIS Elements Software.

In assay [2] the test system is chick chorioallantoic membrane (CAM). The assay can be described thus: Chick chorioallantoic membrane (CAM) model of in vivo angiogenesis. Conditions: 100 nM PD173074 with 250 μg/mL pAdv ECM bioscaffold in fibrin scaffold. As for the experimental part:
FIGS. 14A-14D. Effect of ECM bioscaffolds on angiogenesis in vivo. FIG. 14A) Representative bright field images of scaffolds before (Time 0) and after (72 hr) incubation on the chorioallantoic membrane (CAM) of the chick embryo. […] There was no appreciable angiogenic response detected around scaffolds loaded with digestion buffer (1% (w/v) pepsin in 0.1 N HCl) or DMSO. Addition of the FGF2 inhibitor PD173074 (100 nM) abrogated the angiogenic response to pAdv ECM. […] All scale bars for FIG. 14A=5 mm. FIG. 14B) Representative histological cross-sections of CAM assay scaffolds. The CAM vasculature was visualized using injected tomato lectin-Dylight® 650 (red) and nuclei are labeled with Hoechst dye (blue). A dashed white line denotes the scaffold/CAM interface. […] The maximum tested dose of pAdv ECM (500 μg/mL) inhibited invasion of blood vessels into the scaffold. […] All scale bars in FIG. 14B and FIG. 14C=[…] *Avascular zone comprised of lectin-negative cells. FIG. 14D). […] (*) avascular zone comprised of lectin-negative cells. All scale bars for FIG. 14D=20 μm.
Chick Chorioallantoic Membrane (CAM) Model of In Vivo Angiogenesis. […]

For the compound `CCN(CC)CCCCNc1ncc2cc(-c3cc(OC)cc(OC)c3)c(NC(=O)NC(C)(C)C)nc2n1` [PD173074], the “effect on tube-like formation on non-ECM substrates” value in assay [1] (Matrigel alone or pepsin HCl-supplemented substrates) is on record as “did not affect tube-like formation”. In assay [1] (pAdv and pSIS ECM bioscaffold-supplemented substrates vs absence of inhibitor), the “effect on tube-like formation on ECM-supplemented substrates” value is “decreased the tube-like formation”. For the same compound, the “effect on pAdv ECM bioscaffold-induced angiogenesis” value in assay [2] is listed as “completely inhibited”.
